Data: PubChem BioAssay AID2124 (Sanford-Burnham Center for Chemical Genomics, 2009)
Results filed as inconclusive are left out. The source made the active and inactive calls. The rule behind the calls is not given here; tested in MIN6 cells.

Experiments:
[1] = GFP-wavelength compound autofluorescence in cells – imaging, high-content imaging, artefact control, dose response (AID 2124); conditions: cells, GFP-channel autofluorescence, high-content imaging; cell count; at 10 µM;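 for cell count: cells exposed to compound for 48 hours before fixing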
[2] = tested on: cells, GFP-channel autofluorescence, high-content imaging; assay: as above

Structure (SMILES) | cell count [1] [cells] | EC50 [2]
CN1CCS/C1=C/C=C1/SC(=S)N(Cc2ccccc2)C1=O | 2970 | 8.87 µM
CN1CC=C2C(C#N)=C(N)C(C#N)(C#N)C(Cc3ccccc3)C2C1 (configuration not stated) | 3290 | 13.7 µM (inactive)
C/C(=N\Nc1ccc([N+](=O)[O-])cc1)c1cc2ccccc2o1 | 2980 | 8.87 µM
Cn1cc(/C=C2\SC(=S)N(NC(=O)c3ccccc3Cl)C2=O)c2ccccc21 | 3740 | 13.9 µM (inactive)
COc1ccc2nc(SCC(C)=O)c(C#N)cc2c1 | 2490 | 7.2 µM
Cn1c(/C(C#N)=C/c2ccc(-c3ccc(S(N)(=O)=O)cc3)o2)nc2ccccc21 | 2680 | 8.08 µM
Cc1c(N=C2N=C(NC(=O)c3cccs3)c3ccccc32)c(=O)n(-c2ccccc2)n1C | 2570 | 11.8 µM (inactive)
CCOC(=O)CN1C(=O)S/C(=C/c2ccc(N3CCCCC3)o2)C1=O | 3180 | 7.22 µM
O=C1S/C(=C\c2ccc(N3CCOCC3)o2)C(=O)N1c1ccccc1 | 1060 | > 16 µM (inactive)
CCCN1C=CC(=C/C=C(\C#N)C(=O)OCC)C=C1 | 2900 | 6.81 µM
O=c1oc2cc(O)ccc2cc1-c1nc2c(s1)CCc1ccccc1-2 | 2720 | 7.42 µM
CCCCn1nc(-c2ccccc2)c2nc3ccccc3nc21 | 3250 | 13.8 µM (inactive)
COc1ccc(C(=O)c2sc3nc(-c4ccccc4)ccc3c2N)cc1OC | 2560 | 1.87 µM
Cc1csc(NC(=O)c2sc3nc(-c4cccs4)ccc3c2N)n1 | 2840 | 15.7 µM (inactive)
CN(C)c1ccc(/C=C/C(=O)c2c(O)c3ccccc3oc2=O)cc1 | 3230 | > 16 µM (inactive)
CCCCN1C(=O)/C(=C/C=C2\SCCN2C)SC1=S | 2930 | 6.67 µM
C=CCN1C(=O)/C(=C\C=C2\N(C)c3ccccc3C2(C)C)SC1=S | 2620 | 6.86 µM
CC(C)(C)NC(=S)N/N=C\c1ccc(-c2ccc([N+](=O)[O-])cc2)o1 | 3000 | 11.4 µM (inactive)
CCCN1C(=O)/C(=C/c2c(NCCCOC(C)C)nc3c(C)cccn3c2=O)SC1=S | 2790 | > 16 µM (inactive)
O=C1c2cccc3c(O)ccc(c23)C(=O)N1Cc1ccco1 | 2850 | 14.6 µM (inactive)
CN1CC=C2C(C#N)=C(N)C(C#N)(C#N)[C@H](c3cccs3)[C@H]2C1 | 2820 | > 16 µM (inactive)
CCN1CC=C2C(C#N)=C(N)C(C#N)(C#N)C(CCc3ccccc3)C2C1 (configuration not stated) | 3160 | 9.3 µM
O=c1oc2c3c4c(cc2c(C(F)(F)F)c1CCN1CCOCC1)CCCN4CCC3 | 3400 | 8.25 µM
CN1/C(=C\C=C(/C#N)C(=O)Nc2ccccc2F)C(C)(C)c2ccccc21 | 2910 | 6.93 µM
CNC(=O)c1c(NC(=O)c2ccc(S(=O)(=O)N3CCCc4ccccc43)cc2)sc2c1CCN(C)C2 | 3190 | 8.08 µM
COCCN1C(=O)/C(=C/c2ccc(N3CCCC3)cc2)SC1=S | 3330 | 9.79 µM

Structure (SMILES) | cell count [1] [cells] | EC50 [2]
COc1cccc2sc(NNC(=O)C3=COCCO3)nc12 | 3320 | 8.52 µM
CCN1CC=C2C(C#N)=C(N)C(C#N)(C#N)C(c3cc(Cl)ccc3Cl)C2C1 (configuration not stated) | 2980 | 12.8 µM (inactive)
CCOC(=O)N1CCN(/C=C(\C#N)c2nc3ccccc3s2)CC1 | 2980 | 11.7 µM (inactive)
Cc1c(-c2ccc(O)cc2)nc2nc(-c3ccccc3)c(-c3ccccc3)nn12 | 3200 | > 16 µM (inactive)
CC(C)/C=C1\CC/C(=C\c2ccc(N(C)C)cc2)C1=O | 2850 | 9.45 µM
CC1=C/C(=C\C=C(C#N)C#N)N(C)c2ccccc21 | 3120 | 3.23 µM
CN(C)c1ccc(/C=C/C(O)=C2/C(=O)N(C)C3(C)CC2c2ccccc2O3)cc1 (configuration not stated) | 2640 | 7.25 µM
CC(=O)c1cc(NC(=O)c2ccc(Cl)cc2)c(=O)oc1/C=C/N(C)C | 2840 | 9.14 µM
Cc1c2ccccc2nc2c(F)c(NC(C)C)c(F)c(F)c12 | 2550 | 9.12 µM
CN1CC=C2C(C#N)=C(N)C(C#N)(C#N)C(c3ccsc3)C2C1 (configuration not stated) | 2400 | > 16 µM (inactive)
CCCCN1C(=O)/C(=C/C=C2\N(C)c3ccccc3C2(C)C)SC1=S | 2910 | 2.65 µM
Cc1cccc(N=Cc2[nH]c3ccc(Br)c(Cl)c3c2O)c1 | 3340 | > 16 µM (inactive)
CN1CC=C2C(C#N)=C(N)C(C#N)(C#N)C(c3ccncc3)C2C1 (configuration not stated) | 2850 | 14.8 µM (inactive)
O=C1c2cccc3c(O)ccc(c23)C(=O)N1Cc1ccccc1 | 2660 | > 16 µM (inactive)
N#C/C(=C\N1CCN(Cc2ccc3c(c2)OCO3)CC1)c1nc2ccccc2s1 | 3300 | 10.7 µM (inactive)
Cc1ccc(NS(=O)(=O)c2cc([N+](=O)[O-])ccc2N/N=C/c2sc(N3CCOCC3)nc2-c2ccccc2)c(C)c1 | 2790 | 4.45 µM
CN1CC=C2C(C#N)=C(N)C(C#N)(C#N)C(c3cccc(Cl)c3Cl)C2C1 (configuration not stated) | 3010 | 11.9 µM (inactive)
O=[N+]([O-])c1ccc(/C=C/C2=NN(c3ccccc3)C(c3ccco3)C2)o1 (configuration not stated) | 3240 | 3.87 µM
N#C/C(=C\c1ccc(N2CCCCC2)o1)C(N)=O | 3260 | 12.2 µM (inactive)
CCCN1C(=O)/C(=C/C=C2\N(CC)c3ccccc3C2(C)C)SC1=S | 3030 | 2.71 µM
O=C(/C=C/c1ccc(N2CCC(c3ccccc3)=N2)cc1)c1ccccc1 | 2900 | 5.99 µM
CCN(CC)c1ccc(/C=C(/C#N)C(=O)NC(C)C)o1 | 3080 | 14.2 µM (inactive)
Cc1nn(C)cc1N1C(=O)c2cccc3c(N)ccc(c23)C1=O | 2940 | > 16 µM (inactive)
COc1ccc2c(n1)Sc1nc3ccccc3nc1N2 | 3030 | 6.69 µM
CCN1CC=C2C(C1)C(c1ccc(Cl)s1)C(C#N)=C(N)C2(C#N)C#N (configuration not stated) | 3020 | 11.5 µM (inactive)
